From US10174016B2 (BAYER AKTIENGESELLSCHAFT, priority 2014, dated 2019) come the findings set out here.

Like-named read-outs stand apart in the source and are kept apart here.

Test [1] relates to CFA-induced mechanical hyperalgesia. As to the kind of experiment: Rat CFA in vivo model (mechanical hyperalgesia, paw withdrawal threshold). Details: species or system Male Sprague Dawley rats. The conditions noted are these: dosed 24 hours after CFA injection. The method, then:
Rat CFA In Vivo Model Male Sprague Dawley rats were used. Mechanical hyperalgesia was induced by injecting 25 μl of Complete Freund's Adjuvant (CFA) into the plantar surface of one hind paw. Mechanical hyperalgesia was measured using the Pressure Application Measurement apparatus (Ugo Basile, Gemonio, Italy). Briefly, a linearly increasing pressure was applied to an area of ˜50 mm2 of the plantar side of the hind paw until a behavioural response (paw withdrawal) was observed or until the pressure reached 1000 gf. The pressure at which the behavioural response occurred was recorded as the “Paw Withdrawal Threshold” (PWT). Both CFA-injected and contralateral PWTs were determined for each rat, in each treatment group and at each time point of the studies. […] Compounds were dosed 24 hours after CFA injection. Data were expressed as the mean PWT for each treatment group and at each time point. Data were analysed by performing a repeated measures two way ANOVA (time×treatment). Planned comparison of means (each versus vehicle) was performed by using a Dunnett's post hoc test, provided that a main effect was detected. […] More preferred examples of the present invention show rat CFA in vivo efficacy in the ‘Paw withdrawal threshold 6 hours post drug’ measure when dosed at 3 mg/kg p.o.

In the next test the target is human P2X2/3 receptor (Homo sapiens (Human), UniProt P56373+Q9UBL9). Briefly: Intracellular calcium measurement (FLIPR, Fluo-4) of antagonist activity at human P2X2/3 receptors. Type of test: cell-based. The conditions noted are these: human P2X2/3, FLIPR calcium assay, agonist α,β-Me-ATP; read-out: hP2X2/3 IC50. Summed up: (§1)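 Antagonism quantified from peak calcium fluorescence (Fluo-4, FLIPR, 90 sec read) evoked by EC80 α,β-Me-ATP, after a 30 min, 37° C. compound pretreatment in 1% DMSO. Human P2X3- or P2X2/3-expressing cells used; triplicate means fitted for IC50, percent maximal inhibition and Hill coefficient.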
human P2X2/3 receptor, sequence (P56373 whole entry): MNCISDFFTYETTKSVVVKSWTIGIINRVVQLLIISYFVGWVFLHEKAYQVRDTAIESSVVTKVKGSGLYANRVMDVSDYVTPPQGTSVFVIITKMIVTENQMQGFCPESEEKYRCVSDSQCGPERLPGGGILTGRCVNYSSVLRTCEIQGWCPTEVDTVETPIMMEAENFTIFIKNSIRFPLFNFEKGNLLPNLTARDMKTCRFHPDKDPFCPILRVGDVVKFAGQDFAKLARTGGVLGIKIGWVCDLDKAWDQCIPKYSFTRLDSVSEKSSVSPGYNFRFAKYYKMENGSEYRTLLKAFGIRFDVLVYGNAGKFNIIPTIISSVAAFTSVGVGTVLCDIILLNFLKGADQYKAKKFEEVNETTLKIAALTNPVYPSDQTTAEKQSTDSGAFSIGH
human P2X2/3 receptor, sequence (Q9UBL9 whole entry): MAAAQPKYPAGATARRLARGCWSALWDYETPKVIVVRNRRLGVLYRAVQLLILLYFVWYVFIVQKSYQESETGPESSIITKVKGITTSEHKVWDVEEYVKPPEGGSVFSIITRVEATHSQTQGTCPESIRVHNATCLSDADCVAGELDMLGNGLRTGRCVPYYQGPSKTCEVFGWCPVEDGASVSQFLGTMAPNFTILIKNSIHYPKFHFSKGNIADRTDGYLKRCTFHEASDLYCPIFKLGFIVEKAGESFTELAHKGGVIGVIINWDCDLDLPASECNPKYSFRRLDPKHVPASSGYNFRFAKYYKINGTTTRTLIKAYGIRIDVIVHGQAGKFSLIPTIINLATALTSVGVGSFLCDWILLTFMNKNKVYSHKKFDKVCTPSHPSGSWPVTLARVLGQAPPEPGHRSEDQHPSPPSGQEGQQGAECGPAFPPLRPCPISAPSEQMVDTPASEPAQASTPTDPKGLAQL
Background: Calcium assays in cells follow changes in intracellular calcium, usually with a dye or a luminescent sensor.

A further test addresses human P2X3 receptor (Homo sapiens (Human), UniProt P56373). Briefly: Intracellular calcium measurement (FLIPR, Fluo-4) of antagonist activity at human P2X3 receptors. Type of test: cell-based. Summed up:
as §1

[2] abbreviates: human P2X3, FLIPR calcium assay, agonist α,β-Me-ATP, read-out: hP2X3 IC50.
Setting [3] is: read-out: human P2X3 receptor IC50.

human P2X3 receptor, sequence (P56373 whole entry): as the sequence (P56373 whole entry) above

On to `CC(O)C(C)Oc1cc(C(=O)N[C@H](C)c2cnc(C(F)(F)F)nc2)cc(-c2ncc(Cl)s2)c1` (single isomer, unassigned) [Example 185], for which, in test [1] (3 mg/kg p.o.), the “Paw withdrawal threshold 6 hour-post drug” value was 630 ± 81 (*) gf.

For `Cc1cnc(-c2cc(OC3COC3)cc(C(=O)N[C@H](C)c3cnc(C(F)(F)F)nc3)c2)s1` [Example 48, 3-(5-Methyl-1,3-thiazol-2-yl)-5-(oxetan-3-yloxy)-N-{(1R)-1-[2-(trifluoromethyl)pyrimidin-5-yl]ethyl}benzamide], the “Paw withdrawal threshold 6 hour-post drug” value in test [1] (3 mg/kg p.o.) is on record as 817 ± 69 gf (****). The figures for the IC50 at human P2X2/3 receptor, on human P2X3 receptor (setting [2]) and at human P2X3 receptor (setting [3]) were 451 nM, 14 nM and 14 nM, respectively.

On to `Cc1cnc(-c2cc(OC[C@H]3CN(C)CCO3)cc(C(=O)N[C@H](C)c3cnc(C(F)(F)F)nc3)c2)s1` [Example 348, 3-{[(2R)-4-methylmorpholin-2-yl]methoxy}-5-(5-methyl-1,3-thiazol-2-yl)-N-{(1R)-1-[2-(trifluoromethyl)pyrimidin-5-yl]ethyl}benzamide], for which the “Paw withdrawal threshold 6 hour-post drug” value in test [1] (0.3 mg/kg p.o.) is 599 ± 47 gf (*); in test [1] (1 mg/kg p.o.) it was 601 ± 28 gf (**); in test [1] (3 mg/kg p.o.) it was 633 ± 59 gf (*). For the same molecule, the IC50 on human P2X2/3 receptor was 760 nM; on human P2X3 receptor (setting [2]) it was 7 nM; on human P2X3 receptor (setting [3]), 7 nM.
